Reference: patent publication US11066414B2, “Cot modulators and methods of use thereof” (Gilead Sciences, Inc., priority 2015, dated 2021)
Read-outs that look alike come from different tables or passages of the source.

Experiments:
TNFα = assay: Cot Monocyte TNFα Cell Based Assay
Human Cot = Human Cot (Homo sapiens (Human), UniProt P41279); assay: High Throughput Cot Biochemical Assay
[1] = Homo sapiens, Monocyte, read-out: EC50 TNF, LPS-stimulated human monocytes, TNFα
[2] = IC50 HTRF, Cot HTRF (TR-FRET) biochemical assay
[3] = read-out: EC50 TNF, LPS-stimulated human monocytes, TNFα
[4] = read-out: IC50 HTRF, Cot HTRF (TR-FRET) biochemical assay
[5] = Homo sapiens, Monocyte, read-out: EC50 TNF, LPS-stimulated human monocytes, TNFα TR-FRET
[6] = IC50 HTRF, Cot HTRF (TR-FRET KinEASE) biochemical assay, 400 μM ATP

Chain of Human Cot (P41279 30-397): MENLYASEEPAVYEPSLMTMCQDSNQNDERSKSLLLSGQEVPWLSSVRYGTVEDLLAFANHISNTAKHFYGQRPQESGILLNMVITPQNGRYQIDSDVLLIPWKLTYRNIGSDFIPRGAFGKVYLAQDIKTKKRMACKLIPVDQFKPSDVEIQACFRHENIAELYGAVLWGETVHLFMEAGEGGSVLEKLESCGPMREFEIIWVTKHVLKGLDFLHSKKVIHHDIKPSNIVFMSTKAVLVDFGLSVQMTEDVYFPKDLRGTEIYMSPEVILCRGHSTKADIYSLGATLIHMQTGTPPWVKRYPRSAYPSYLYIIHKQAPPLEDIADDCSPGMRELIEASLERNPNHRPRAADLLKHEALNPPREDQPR

| Compound | EC50 (TNFα; [1]) [µM] | IC50 (Human Cot; [2]) [µM] | other results |
| --- | --- | --- | --- |
| CC(C)(C)CNc1c(C#N)cnc2c(C#N)cc(N[C@H](c3cn(C4(C(F)(F)F)CC4)nn3)c3cccc4c(=O)[nH]ccc34)cc12 [Example 700, (S)-4-(neopentylamino)-6-(((1-oxo-1,2-dihydroisoquinolin-5-yl)(4-(1-1-(trifluoromethyl)-cyclopropyl)-1H-1,2,3-triazol-4-yl)methyl)amino)quinoline-3,8-dicarbonitrile] |  |  | EC50 (TNFα; [3]): 0.179 µM; IC50 (Human Cot; [4]): 0.002 µM |
| [2H]C(Nc1cc(Cl)c2ncc(C#N)c(N[C@H](CCC#N)c3ccccc3)c2c1)(c1ccc(F)nc1)c1cn(C2CC2)nn1 (stereo partly drawn) [Example 89, 8-chloro-4-(((R)-3-cyano-1-phenylpropyl)amino)-6-(((1-cyclopropyl-1H-1,2,3-triazol-4-yl)(6-fluoropyridin-3-yl)methyl-d)amino)quinoline-3-carbonitrile] | > 1 | 0.52 |  |
| Cc1nc(F)ccc1[C@H](Nc1cc(Cl)c2ncc(C#N)c(NCC(C)(C)C)c2c1)c1cn(C2CC23CC3)nn1 (stereo partly drawn) [Example 766, 8-chloro-6-(((1S)-(6-fluoro-2-methylpyridin-3-yl)(1-(spiro[2.2]pentan-1-yl)-1H-1,2,3-triazol-4-yl)methyl)amino)-4-(neopentylamino)quinoline-3-carbonitrile] | 0.03 | 0.002 |  |
| CC(C)(C)CNc1c(C#N)cnc2c(Cl)cc(N[C@H](c3cn(C4(CF)CC4)nn3)c3cccc4ccncc34)cc12 [Example 594, (S)-8-chloro-6-(((1-(1-(fluoromethyl)cyclopropyl)-1H-1,2,3-triazol-4-yl)(isoquinolin-8-yl)methyl)amino)-4-(neopentylamino)quinoline-3-carbonitrile] | 0.033 | 0.002 |  |
| [2H]C([2H])([2H])C([2H])([2H])[C@@H](Nc1c(C#N)cnc2c(Cl)cc(N[C@]([2H])(c3ccc(F)nc3)c3cn(C4CC4)nn3)cc12)c1ccccc1 [Example 108, 8-chloro-6-(((R)-(1-cyclopropyl-1H-1,2,3-triazol-4-yl)(6-fluoropyridin-3-yl)methyl-d)amino)-4-(((R)-1-phenyl-propyl-2,2,3,3,3-d5)amino)quinoline-3-carbonitrile] | > 10 | 0.913 |  |
| N#Cc1cnc2c(Cl)cc(N[C@H](c3cn(CCO)nn3)c3cccnc3Cl)cc2c1Nc1ccc(F)c(Cl)c1 [Example 331, (S)-8-chloro-4-((3-chloro-4-fluorophenyl)amino)-6-(((2-chloropyridin-3-yl)(1-(2-hydroxy-ethyl)-1H-1,2,3-triazol-4-yl)methyl)amino)quinoline-3-carbonitrile] | 0.173 | 0.003 |  |
| CC(C)n1cc([C@@H](Nc2cc(Cl)c3ncc(C#N)c(N[C@H](c4ccccc4)C(C)(C)O)c3c2)c2cccnc2)nn1 [Example 202, 8-chloro-4-(((R)-2-hydroxy-2-methyl-1-phenylpropyl)amino)-6-(((S)-(1-isopropyl-1H-1,2,3-triazol-4-yl)(pyridin-3-yl)methyl)amino)quinoline-3-carbonitrile] | > 10 | > 10 |  |
| Cc1nc(F)ccc1[C@H](Nc1cc(C#N)c2ncc(C#N)c(NCC(C)(C)C(F)(F)F)c2c1)c1nnn(C2(C)CC2)c1F [Example 863, (S)-6-(((5-fluoro-1-(1-methylcyclopropyl)-1H-1,2,3-triazol-4-yl)(6-fluoro-2-methylpyridin-3-yl)methyl)amino)-4-((3,3,3-trifluoro-2,2-dimethylpropyl)amino)-quinoline-3,8-dicarbonitrile] |  |  | EC50 (TNFα; [5]): 0.035 µM; IC50 (Human Cot; [6]): 0.002 µM |
| Cc1nc(F)ccc1[C@H](Nc1cc(Cl)c2ncc(C#N)c(NCC(C)(C)C)c2c1)c1nnn(C2(C(F)F)CC2)c1I [Example 707, (S)-8-chloro-6-(((1-(1-(difluoromethyl)cyclopropyl)-5-iodo-1H-1,2,3-triazol-4-yl)(6-fluoro-2-methylpyridin-3-yl)methyl)amino)-4-(neopentylamino)quinoline-3-carbonitrile] | 0.23 | 0.016 |  |
| CC(C)(C)N1CCC(n2cc([C@@H](Nc3cc(Cl)c4ncc(C#N)c(Nc5cccc(Cl)c5F)c4c3)c3csc4c3CCN(C3COC3)C4)nn2)CC1 [Example 241, (S)-6-(((1-(1-(tert-butyl)piperidin-4-yl)-1H-1,2,3-triazol-4-yl)(6-(oxetan-3-yl)-4,5,6,7-tetrahydrothieno[2,3-c]pyridin-3-yl)methyl)amino)-8-chloro-4-((3-chloro-2-fluorophenyl)amino)-quinoline-3-carbonitrile] | 0.032 | 0.002 |  |
| CC(C)(C)CNc1c(C#N)cnc2c(Cl)cc(N[C@H](c3cn(C45CC(C4)C5)nn3)c3ccc(F)c4ncccc34)cc12 [Example 920, (S)-6-(((1-(bicyclo[1.1.1]pentan-1-yl)-1H-1,2,3-triazol-4-yl)(8-fluoroquinolin-5-yl)methyl)amino)-8-chloro-4-(neopentylamino)quinoline-3-carbonitrile] |  |  | EC50 (TNFα; [5]): 0.028 µM; IC50 (Human Cot; [6]): 0.003 µM |
| Cn1ccc2c([C@H](Nc3cc(C#N)c4ncc(C#N)c(NCC(C)(C)C(F)(F)F)c4c3)c3cn(C4(C)CC4)nn3)cccc2c1=O [Example 884, (S)-6-(((2-methyl-1-oxo-1,2-dihydroisoquinolin-5-yl)(1-(1-methylcyclopropyl)-1H-1,2,3-triazol-4-yl)methyl)amino)-4-((3,3,3-trifluoro-2,2-dimethylpropyl)amino)q uin oline-3,8-dicarbonitrile] |  |  | EC50 (TNFα; [5]): 0.019 µM; IC50 (Human Cot; [6]): 0.001 µM |
| Cn1cnc2cccc([C@H](Nc3cc(C#N)c4ncc(C#N)c(NCC(C)(C)C)c4c3)c3cn(C4(C(F)(F)F)CC4)nn3)c21 [Example 484, (S)-6-(((1-methyl-1H-benzo[d]imidazol-7-yl)(1-(1-(trifluoromethyl)cyclopropyl)-1H-1,2,3-triazol-4-yl)methyl)amino)-4-(neopentylamino)quinoline-3,8-dicarbonitrile] | 0.073 | 0.003 |  |
| CC(C)(C)N1CCC(n2cc([C@@H](Nc3cc(Cl)c4ncc(C#N)c(Nc5ccc(F)c(Cl)c5)c4c3)c3ccc(Cl)nc3Cl)nn2)CC1 [Example 325, (S)-6-(((1-(1-(tert-butyl)piperidin-4-yl)-1H-1,2,3-triazol-4-yl)(2,6-dichloropyridin-3-yl)methyl)amino)-8-chloro-4-((3-chloro-4-fluorophenyl)-amino)quinoline-3-carbonitrile] | 0.65 | 0.02 |  |
| [2H][C@](Nc1cc(Cl)c2ncc(C#N)c(Nc3cnc(F)c(Cl)c3)c2c1)(c1ccc(F)nc1)c1cn(C2CC2)nn1 [Example 139, (S)-8-chloro-4-((5-chloro-6-fluoropyridin-3-yl)amino)-6-(((1-cyclopropyl-1H-1,2,3-triazol-4-yl)(6-fluoropyridin-3-yl)methyl-d)amino)quinoline-3-carbonitrile] | 0.092 | 0.002 |  |
| Cn1cnc([C@H](Nc2cc(Cl)c3ncc(C#N)c(Nc4ccc(F)c(Cl)c4)c3c2)c2cn(C3CCN(C(C)(C)C)CC3)nn2)c1 [Example 267, (S)-6-(((1-(1-(tert-butyl)piperidin-4-yl)-1H-1,2,3-triazol-4-yl)(1-methyl-1H-imidazol-4-yl)methyl)amino)-8-chloro-4-((3-chloro-4-fluorophenyl)-amino)quinoline-3-carbonitrile] | 5.12 | 0.03 |  |
| N#Cc1cnc2c(Cl)cc(N[C@@H](c3cocn3)c3c[nH]nn3)cc2c1N[C@H](CO)c1ccccc1 [Example 215, 8-chloro-4-(((S)-2-hydroxy-1-phenylethyl)amino)-6-(((S)-o)(azol-4-yl(1H-1,2,3-triazol-4-yl)methyl)amino)quinoline-3-carbonitrile] |  |  | EC50 (TNFα; [3]): > 10 µM; IC50 (Human Cot; [4]): 0.258 µM |
| [2H][C@](Nc1cc(Cl)c2ncc(C#N)c(Nc3cnc(F)c(F)c3)c2c1)(c1cncc(C#N)c1)c1cn(C2CC2)nn1 [Example 143, (S)-8-chloro-6-(((5-cyanopyridin-3-yl)(1-cyclopropyl-1H-1,2,3-triazol-4-yl)methyl-d)amino)-4-((5,6-difluoropyridin-3-yl)amino)quinoline-3-carbonitrile] | 0.898 | 0.016 |  |
| CC[C@@H](Nc1c(C#N)cnc2c(Cl)cc(N[C@@H](c3cccnc3)c3cn(C4CCN(C(C)(C)C)CC4)nn3)cc12)c1ccccc1 [Example 258] |  |  | EC50 (TNFα; [3]): 0.033 µM; IC50 (Human Cot; [4]): 0.002 µM |

More lines, main results first:

| EC50 (TNFα; [1]) [µM] | IC50 (Human Cot; [2]) [µM] | Compound | other results |
| --- | --- | --- | --- |
| 1.56 | 0.051 | Cc1ccc([C@H](Nc2cc(Cl)c3ncc(C#N)c(Nc4ccc(F)c(Cl)c4)c3c2)c2cn(COC(=O)C(C)(C)C)nn2)cn1 [Example 273, (S)-(4-(((8-chloro-4-((3-chloro-4-fluorophenyl)amino)-3-cyanoquinolin-6-yl)amino)(6-methylpyridin-3-yl)methyl)-1H-1,2,3-triazol-1-yl)methyl pivalate] |  |
| 0.129 | 0.002 | Cc1nc(F)ccc1[C@H](Nc1cc(C#N)c2ncc(C#N)c(NCC(C)(C)C)c2c1)c1cn(C2(C#N)CC2)nn1 [Example 489, (S)-6-(((1-(1-cyanocyclopropyl)-1H-1,2,3-triazol-4-yl)(6-fluoro-2-methylpyridin-3-yl)methyl)amino)-4-(neopentylamino)-quinoline-3,8-dicarbonitrile] |  |
| 2.33 | 0.007 | N#Cc1cnc2c(Cl)cc(N[C@H](c3c[nH]nn3)c3csc4c3CCNC4)cc2c1Nc1ccc(F)c(Cl)c1 [Example 275, (S)-8-chloro-4-((3-chloro-4-fluorophenyl)amino)-6-(((4,5,6,7-tetrahydrothieno[2,3-c]pyridin-3-yl)(1H-1,2,3-triazol-4-yl)methyl)-amino)quinoline-3-carbonitrile] |  |
| 0.091 | 0.003 | Cc1nc(F)ccc1[C@H](Nc1cc(Cl)c2ncc(C#N)c(NCC(C)(C)C(F)(F)F)c2c1)c1cn(C(C)(C)C)nn1 [Example 715, (S)-6-(((1-(tert-butyl)-1H-1,2,3-triazol-4-yl)(6-fluoro-2-methylpyridin-3-yl)methyl)amino)-8-chloro-4-((3,3,3-trifluoro-2,2-dimethylpropyl)amino)quinoline-3-carbonitrile] |  |
